Laboratory results reported in US20250082630A1, “METHODS OF TREATING BRAIN TUMOURS AND NEUROBLASTOMAS” (AstraZeneca AB, priority 2021, published 2025).

Columns and labels:
[1] = Determination of Kpuu in rat; assay type: in vivo, Han Wistar rats; conditions: Han Wistar, rat, brain and plasma (unbound brain-to-plasma ratio), 2 µmols/kg/h, intravenous infusion
Protocol: The fraction unbound was determined using the RED Device.
Compounds were prepared as 10 mM solutions in DMSO. […] If less than 9 test compounds were included then the addition volume of blank DMSO was added to make up volume to 40 uL.
Frozen plasma was thawed in a water bath at 37° C. Plasma was then centrifuged for 2 minutes at 4,000 rpm to remove clots and collect supernatant into a fresh tube. The pH of the plasma was checked and only used if within the range of pH 7 to pH 8. 3 μL of the working solution of each cassette was added to 597 μL of blank plasma and vortexed for 5 minutes at 1000 rpm. The final percent volume of organic solvent is 0.5% and the final concentration for test compound was 5 μM. Immediately transfer 50 μL of the spiked plasma suspension to a 96-well plate to act as T=0 control sample. The samples are treated the same as the samples after incubation. The remaining plasma is kept at 37° C. prior to starting the dialysis.
Place inserts open end up into the wells of the base plate. Add 300 μL of spiked plasma sample into the sample chamber, indicated by the red ring. Add 500 μL of phosphate buffer (pH 7.4) to the buffer chamber. Cover the unit with gas permeable lid and incubate for 18 hours at 37° C. at 300 rpm with 5% CO2 on an orbital shaker in the CO2 incubator. At the end of incubation, remove lid and pipette 50 μL of post-dialysis samples from both buffer and plasma chambers into separated 96-well plate for analysis, respectively.
Samples were matrix matched by adding 50 μL of blank rat plasma to the buffer samples and an equal volume of PBS to the collected plasma samples and vortexed to mix. 400 μL of acetonitrile containing an appropriate internal standard (IS) was added to precipitate protein and release compound and mixed by vortexing the plate for 10 minutes followed by centrifugation for 30 minutes at 4,000 rpm. 250 μL of the supernatant was transferred to new 96-well plates and centrifuged again (4,000 rpm, 30 minutes). 100 μL of the supernatant was then transferred to new 96-well plates and mixed with 100 μL of distilled water to each sample by vortex for 5 minutes at 1,000 rpm. Samples were analysed by LC-MS/MS and drug concentrations were determined vs a calibration curve produced from spiked blank plasma with a typical range of 1-7500 nM.
The % unbound was determined as % Unbound=(Conc. buffer chamber/Conc. plasma chamber)×100%. Fraction unbound=% unbound/100.
The principle for the method for the determination of volume unbound in brain slices has previously been published (Development of a High-Throughput Brain Slice Method for Studying Drug Distribution in the Central Nervous System; Fridén et al; Drug Metabolism and Disposition, 2009, 37 (6) 1226-1233). In brief:
Compound stock solutions were prepared in DMSO at the concentration of 10 mM. […] If less than 9 test compounds were included, then blank DMSO was added to make up volume to 40 uL. On the day of the experiment 4 ul was diluted in 40 mL ECF buffer to give a 100 nM solution of each test compounds which was then pre-warmed to 37° C. before the start of the incubation.
To prepare brain slices, rats weighing approximately 300 g were terminally anesthetised with isoflurane by inhalation, the brain carefully removed and immersed in ice-cold oxygenated ECF buffer. The rat brain was transferred to a dish containing ice-cold, 02 supplied ECF buffer and trimmed with razor before gluing to the tray of a microslicer with the brain placed with the back section surface down centrally on the tray. Ice cold ECF buffer was added to harden the glue and wet the brain. The tray was placed in the microslicer and using a suitable cutting speed, 100-400 μm were cut slices until the striatum area appeared. Four to six for each brain, 300 μm thick, coronal slices of striatum areas were cut and placed in ice cold 02 supplied buffer until incubation. Six slices were transferred to the incubation tray containing 40 mL pre warmed (37° C.) cassette mixture. […]

[2] = test system: PARylation in U87 isogenic pair; experiment: PARylation inhibition in U87 isogenic pair; assay type: cell-based; conditions: data not shown
[3] = test system: PARylation in BT245 H3K27M paediatric glioma model; experiment: PARylation inhibition in paediatric glioma model; assay type: cell-based
[4] = target: PARP1 (Homo sapiens (Human), UniProt P09874); experiment: PARP1 trapping; assay type: cell-based; conditions: data not shown
Chain of PARP1 (P09874 whole entry): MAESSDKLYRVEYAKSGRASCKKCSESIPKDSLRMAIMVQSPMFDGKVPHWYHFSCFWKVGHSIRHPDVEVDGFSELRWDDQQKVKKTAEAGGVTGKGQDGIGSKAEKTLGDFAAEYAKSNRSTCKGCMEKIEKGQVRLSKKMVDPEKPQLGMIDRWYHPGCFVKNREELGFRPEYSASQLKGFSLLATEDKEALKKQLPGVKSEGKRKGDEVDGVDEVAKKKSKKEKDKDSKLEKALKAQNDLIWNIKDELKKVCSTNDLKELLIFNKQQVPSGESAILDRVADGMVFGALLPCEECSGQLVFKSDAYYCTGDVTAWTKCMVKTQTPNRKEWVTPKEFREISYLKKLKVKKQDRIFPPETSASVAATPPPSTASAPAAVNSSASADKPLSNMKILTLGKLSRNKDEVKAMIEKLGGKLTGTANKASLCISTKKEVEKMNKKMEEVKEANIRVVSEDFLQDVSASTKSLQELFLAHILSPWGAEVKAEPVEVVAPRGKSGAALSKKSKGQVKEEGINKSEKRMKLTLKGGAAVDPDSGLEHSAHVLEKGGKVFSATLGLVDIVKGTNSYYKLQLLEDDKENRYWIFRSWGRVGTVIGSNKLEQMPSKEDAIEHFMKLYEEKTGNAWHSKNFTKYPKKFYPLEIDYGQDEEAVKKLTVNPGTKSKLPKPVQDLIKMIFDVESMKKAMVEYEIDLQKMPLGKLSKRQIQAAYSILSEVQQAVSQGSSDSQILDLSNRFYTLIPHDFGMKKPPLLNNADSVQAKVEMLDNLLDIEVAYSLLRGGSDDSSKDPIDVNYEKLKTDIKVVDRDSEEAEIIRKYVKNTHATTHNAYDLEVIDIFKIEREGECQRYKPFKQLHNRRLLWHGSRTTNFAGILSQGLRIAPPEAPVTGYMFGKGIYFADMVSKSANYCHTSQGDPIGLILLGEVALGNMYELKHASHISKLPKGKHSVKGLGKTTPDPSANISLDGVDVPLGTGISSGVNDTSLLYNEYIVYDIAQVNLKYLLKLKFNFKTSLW

[5] = test system: U87 IDH1 wt; experiment: Combination assay PARP inhibitor with TMZ, U87 IDH1 wt; assay type: cell-based
Protocol: To evaluate the activity and potency of the PARP inhibitors described herein in combination with the standard of care chemotherapy Temozolamide (TMZ), ionizing radiation (IR) and the emerging chemotherapy VAL-083, U87, SJG2 and BT245 glioblastoma cells were assayed. Parental U87 cell lines were obtained from the AstraZeneca Global Cell Bank in Alderley Park, UK and the isocistrate dehydrogenase 1 mutant cell line (IDH1 mt R1 32H) was licensed in from ATCC. The SJ-G2 (ATRX mutant) and BT245 (H3K27M mutant) cell lines were obtained from The Research Institute of the McGill University Health Centre, Montreal, QC H4A 3J1, Canada. IDH1R132 mutation was induced in SJG2 cell line to generated isogenic pair (SJG2 IDH1mt and SJG2 IDH1 wt). […]
For the nuclear count end point assay, cells were fixed for ˜15 minutes (min) by the addition of 50 μl per well of Formaldehyde (Sigma-Aldrich F8775). […] The images were acquired using CellInsight CX5 (Thermo Fisher) and analysed by measuring the total number of hoechst stained nuclei. The number of nuclei (% confluence) of the drug treated wells were normalised to the DMSO control and the growth inhibition was calculated using the combenefit software (Di Veroli et al., 2016).

CNC(=O)c1ccc(N2CCN(Cc3ccc4nc(C)c(=O)[nH]c4c3F)CC2)c(F)n1 [Example 20, 6-fluoro-5-[4-[(5-fluoro-2-methyl-3-oxo-4H-quinoxalin-6-yl)methyl]piperazin-1-yl]-N-methyl-pyridine-2-carboxamide]
Kp uu at 4 h [1]: 0.27 | IC95 for PARylation inhibition [2]: 8 nM | IC95 for PARylation inhibition [3]: 4 nM | lowest concentration with potent trapping of PARP1 [4]: 10 nM | concentration at which Compound 20 synergises with TMZ [5]: 10 µM
